Experimental data: ChEMBL document CHEMBL1201862, “PubChem BioAssay data set” (2004)
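Cultured in 96-well plates, cells were exposed to test compound for 48 hours across five concentrations. Here, GI50 denotes the concentration required for 50% inhibition of growth.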 The source made the active and inactive calls. Cut-off read from the data, not from the text of the source: active = GI50 up to about 1.1 µM and inactive = higher.

How the values were obtained:
Assay in all cases: inhibition of tumour cell growth, NCI panel, 48 h
[1] = tested on: A498
[2] = tested on: EKVX
[3] = tested on: HCT-15
[4] = tested on: HOP-62
[5] = tested on: Hs-578T
[6] = tested on: M14
[7] = tested on: MDA-MB-231
[8] = tested on: MDA-MB-435
[9] = tested on: OVCAR-3
[10] = tested on: OVCAR-4
[11] = tested on: OVCAR-5
[12] = tested on: OVCAR-8
[13] = tested on: PC-3
[14] = tested on: SF-268
[15] = tested on: SF-539
[16] = tested on: SN12C
[17] = tested on: SNB-75
[18] = tested on: SR
[19] = tested on: SW-620
[20] = tested on: UACC-257

SMILES | GI50 [1] | GI50 [2] | GI50 [3] [µM] | GI50 [4] | GI50 [5] | GI50 [6] | GI50 [7] | GI50 [8] | GI50 [9] | GI50 [10] | GI50 [11] | GI50 [12] | GI50 [13] | GI50 [14] | GI50 [15] | GI50 [16] | GI50 [17] | GI50 [18] | GI50 [19] | GI50 [20]
CC(NP(=O)(c1ccccc1)c1ccccc1)c1ccccc1 (stereo not given) | > 100 µM (inactive) | > 100 µM (inactive) | > 100 | > 100 µM (inactive) | > 100 µM (inactive) | > 100 µM (inactive) | > 100 µM (inactive) | > 100 µM (inactive) | > 100 µM (inactive) | > 100 µM (inactive) | > 100 µM (inactive) | > 100 µM (inactive) | > 100 µM (inactive) | > 100 µM (inactive) | > 100 µM (inactive) | > 100 µM (inactive) | > 100 µM (inactive) | > 100 µM (inactive) | > 100 µM (inactive) | > 100 µM (inactive)
CC(=O)OCC1OC(O[C@H]2C=C[C@@H](C(=O)OCc3ccccc3)n3c(=O)n(-c4ccccc4)c(=O)n32)C(OC(C)=O)C(OC(C)=O)C1OC(C)=O (stereo not given in full) | 2.55 µM (inactive) | 1.95 µM (inactive) | 0.741 | 5.01 µM (inactive) | 1.99 µM (inactive) | 1.78 µM (inactive) | 1.89 µM (inactive) | 2.07 µM (inactive) | 1.79 µM (inactive) | 2.54 µM (inactive) | 2.23 µM (inactive) | 2.48 µM (inactive) | 3.69 µM (inactive) | 1.78 µM (inactive) | 1.82 µM (inactive) | 1.94 µM (inactive) | 10.9 µM (inactive) | 1.3 µM (inactive) | 1.77 µM (inactive) | 1.92 µM (inactive)
O=C(O)c1ccc(C(=O)Nc2cccc3ccccc23)c(C(=O)O)c1 | > 100 µM (inactive) | > 100 µM (inactive) | > 100 | > 100 µM (inactive) | > 100 µM (inactive) | > 100 µM (inactive) | > 100 µM (inactive) | > 100 µM (inactive) | > 100 µM (inactive) | > 100 µM (inactive) | > 100 µM (inactive) | > 100 µM (inactive) | > 100 µM (inactive) | > 100 µM (inactive) | > 100 µM (inactive) | > 100 µM (inactive) | > 100 µM (inactive) | > 100 µM (inactive) | > 100 µM (inactive) | > 100 µM (inactive)
CCCCCCC(=O)OC[n+]1ccc(-c2c(COC(=O)NC(C)C)c(COC(=O)NC(C)C)c3n2CCC3)cc1 | 46.9 µM (inactive) | > 100 µM (inactive) | > 100 | > 64.3 µM (inactive) | > 100 µM (inactive) | > 87.9 µM (inactive) | > 71.3 µM (inactive) | > 100 µM (inactive) | > 100 µM (inactive) | > 100 µM (inactive) | > 100 µM (inactive) | > 100 µM (inactive) | > 90.8 µM (inactive) | 48.6 µM (inactive) | 45.1 µM (inactive) | 49.5 µM (inactive) | > 68.1 µM (inactive) | 10 µM (inactive) | 74.5 µM (inactive) | > 100 µM (inactive)
COc1cc2c[n+](C)c3c(c2cc1OC)Cc1cc2c(cc1-3)OCO2 | > 100 µM (inactive) | > 100 µM (inactive) | > 100 | > 100 µM (inactive) | > 100 µM (inactive) | > 100 µM (inactive) | > 100 µM (inactive) | > 100 µM (inactive) | > 100 µM (inactive) | 87.3 µM (inactive) | > 100 µM (inactive) | > 100 µM (inactive) | > 100 µM (inactive) | > 100 µM (inactive) | > 100 µM (inactive) | > 100 µM (inactive) | > 100 µM (inactive) | 29.1 µM (inactive) | > 100 µM (inactive) | > 100 µM (inactive)
